Experimental data: ChEMBL document CHEMBL4138169, “Biological activity of dihydropyrimidinone (DHPM) derivatives: A systematic review” (Eur J Med Chem, 2018)

Target: Cav1.2 (voltage-dependent L-type calcium channel subunit alpha-1C) (Homo sapiens, UniProt Q13936)
Experiment: Inhibition of human Cav1.2 expressed in HEK293 cells assessed as reduction in Ca2+ uptake at 100 uM measured as first 2 mins sampled at a frequency of one sample every second and the last 12 min at a frequency of one sample every 5 secs by fluo-3AM-based FLIPR assay
Assay type: cell-based
Conditions: HEK293 cells that express human Cav1.2

Chain of Cav1.2 (voltage-dependent L-type calcium channel subunit alpha-1C) (Q13936 whole entry): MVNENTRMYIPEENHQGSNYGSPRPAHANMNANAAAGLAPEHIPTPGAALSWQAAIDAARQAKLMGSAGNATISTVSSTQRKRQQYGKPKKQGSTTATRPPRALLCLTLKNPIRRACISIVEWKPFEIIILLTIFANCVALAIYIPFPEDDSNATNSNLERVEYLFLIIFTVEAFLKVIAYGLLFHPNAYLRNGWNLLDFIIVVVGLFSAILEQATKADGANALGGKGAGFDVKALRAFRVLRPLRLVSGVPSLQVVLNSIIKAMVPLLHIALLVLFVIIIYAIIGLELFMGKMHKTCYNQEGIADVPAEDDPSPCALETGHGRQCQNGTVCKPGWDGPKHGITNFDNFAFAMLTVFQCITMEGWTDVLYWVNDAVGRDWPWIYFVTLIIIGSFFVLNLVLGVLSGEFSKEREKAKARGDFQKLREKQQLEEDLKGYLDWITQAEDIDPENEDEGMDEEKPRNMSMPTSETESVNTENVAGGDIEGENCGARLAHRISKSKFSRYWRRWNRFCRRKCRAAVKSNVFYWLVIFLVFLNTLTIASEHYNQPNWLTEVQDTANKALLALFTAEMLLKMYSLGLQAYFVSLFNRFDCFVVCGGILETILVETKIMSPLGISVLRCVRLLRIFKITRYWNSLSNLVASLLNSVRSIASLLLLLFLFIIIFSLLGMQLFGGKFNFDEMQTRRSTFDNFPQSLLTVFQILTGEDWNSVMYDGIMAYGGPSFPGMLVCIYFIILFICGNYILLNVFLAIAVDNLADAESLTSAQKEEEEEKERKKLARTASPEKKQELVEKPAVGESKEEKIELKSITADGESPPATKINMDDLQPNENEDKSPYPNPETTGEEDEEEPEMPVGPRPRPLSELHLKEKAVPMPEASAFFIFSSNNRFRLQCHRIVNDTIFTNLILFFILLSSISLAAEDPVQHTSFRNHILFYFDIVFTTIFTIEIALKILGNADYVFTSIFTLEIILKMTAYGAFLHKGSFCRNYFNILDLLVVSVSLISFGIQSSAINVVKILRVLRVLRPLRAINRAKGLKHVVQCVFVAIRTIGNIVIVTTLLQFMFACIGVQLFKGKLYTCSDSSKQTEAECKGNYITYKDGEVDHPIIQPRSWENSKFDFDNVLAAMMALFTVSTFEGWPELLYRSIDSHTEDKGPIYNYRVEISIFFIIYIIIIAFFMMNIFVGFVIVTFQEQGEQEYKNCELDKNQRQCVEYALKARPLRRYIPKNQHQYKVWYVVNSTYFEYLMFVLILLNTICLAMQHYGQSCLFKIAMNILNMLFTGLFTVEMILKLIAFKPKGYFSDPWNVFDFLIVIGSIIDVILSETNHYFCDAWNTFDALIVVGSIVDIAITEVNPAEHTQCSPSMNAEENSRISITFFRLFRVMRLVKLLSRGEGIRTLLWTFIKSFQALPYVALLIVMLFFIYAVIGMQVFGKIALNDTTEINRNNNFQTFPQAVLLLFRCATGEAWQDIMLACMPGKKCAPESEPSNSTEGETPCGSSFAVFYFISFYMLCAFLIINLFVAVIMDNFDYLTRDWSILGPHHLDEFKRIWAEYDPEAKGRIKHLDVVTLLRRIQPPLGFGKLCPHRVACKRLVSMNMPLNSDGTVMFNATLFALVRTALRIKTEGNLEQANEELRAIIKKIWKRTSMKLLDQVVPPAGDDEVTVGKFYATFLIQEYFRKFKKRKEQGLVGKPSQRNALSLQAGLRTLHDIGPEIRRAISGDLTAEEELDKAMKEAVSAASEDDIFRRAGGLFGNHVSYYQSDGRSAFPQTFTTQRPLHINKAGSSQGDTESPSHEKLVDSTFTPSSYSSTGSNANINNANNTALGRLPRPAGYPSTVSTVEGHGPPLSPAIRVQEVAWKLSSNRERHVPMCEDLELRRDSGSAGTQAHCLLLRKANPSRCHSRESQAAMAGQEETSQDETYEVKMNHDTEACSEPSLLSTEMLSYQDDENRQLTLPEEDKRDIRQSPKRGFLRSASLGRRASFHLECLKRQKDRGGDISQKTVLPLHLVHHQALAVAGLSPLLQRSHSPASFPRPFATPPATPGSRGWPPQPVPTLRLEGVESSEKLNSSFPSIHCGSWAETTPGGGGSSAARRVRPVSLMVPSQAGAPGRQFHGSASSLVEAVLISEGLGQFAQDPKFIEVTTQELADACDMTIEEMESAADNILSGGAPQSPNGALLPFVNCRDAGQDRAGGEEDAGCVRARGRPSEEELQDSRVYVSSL

CCOC(=O)C1=C(C)NC(=S)NC1c1cccc(O)c1 (stereo unspecified) [MONASTROL]
inhibition at 100 µM: 70%
